{
  "source": "patent US8232299B2",
  "about": "“Phthalimide derivatives that influence cellular vesicular systems, pharmaceutical compositions, and use thereof” (Avidin Kft., priority 2007, dated 2012)",
  "key": {"[1]": {"system": "MCF7 (Human breast adenocarcinoma)", "assay": "cytotoxic effect on breast carcinoma cell line, MTS test, 24 hours", "format": "cell-based", "details": "24 hours incubation", "method": "(§1) In these experiments HepG2 (human hepatocellular carcinoma) and MCF7 (Human breast adenocarcinoma) cells were used. They were cultured in the following media: For HepG2 Dulbecco's Modified Eagle Medium (D-MEM) (high glucose) (Gibco BRL, Carlsbad, Calif., USA), penicillin (50 IU/ml)-streptomycin ([…]), 10% fetal bovine serum; for MCF7 (Human breast adenocarcinoma) 1:1 mixture of Dulbecco's Modified Eagle Medium (D-MEM) (high glucose) (Gibco BRL, Carlsbad, Calif., USA) and Nutrient Mixture F-12 Ham (Sigma, St. Louis, Mo., USA), penicillin (50 IU/ml)-streptomycin ([…]), 10% fetal bovine serum. Experiments were performed as described in Example 9. with the difference that the incubation time was 24 hours in this case. After the incubation period MTS test (3-(4,5-dimethylthiazol-2-yl)-5-(3-carboxymethoxyphenyl)-2-(4-sulfophenyl)-2H-tetrazolium) (Promega, Madison, Wis., USA) was performed as described above."}, "Mycobacterium avis": {"system": "Mycobacterium avis", "assay": "inhibition of Mycobacterium avis in THP-1 macrophage culture", "format": "cell-based", "details": "36 mg/l, THP-1 human macrophage cells; FIG. 11", "method": "In this experiment the effects of compound 3a were analyzed: the inhibition of Mycobacterium avis in macrophage culture was investigated. Human macrophage cells (THP-1) were infected by Mycobacterium avis under in vitro conditions, subsequently treated (compound 3a: 36 mg/l) and untreated cells were harvested after different periods of time and the number of the living Mycobacterium avis bacteria were determined."}, "[2]": {"system": "HepG2 (human hepatocellular carcinoma)", "assay": "cytotoxic effect on hepatocellular carcinoma cell line, MTS test, 24 hours", "format": "cell-based", "details": "24 hours incubation", "method": "as §1"}, "[3]": {"system": "RVH human melanoma cell line", "assay": "cytotoxic effect on melanoma cell line, MTS assay, 48 hours", "format": "cell-based", "details": "48 hours treatment, FIG. 4; for effect on RVH melanoma cells: even at 100 μM concentration", "method": "RVH human melanoma cell line was cultured in Minimum Essential Medium Eagle (Sigma, St. Louis, Mo., USA), Na-piruvate, Glutamine, Non-essential amino acids, penicillin (50 IU/ml)-streptomycin ([…]), 10% fetal bovine serum at 37° C., in 5% CO2. Cells were trypsinized with trypsin/EDTA (Sigma-Aldrich, St. Louis, Mo.) on every second day and were passed into 60 or 100 mm plates. When the culture reached the required cell number (approx. 10^6) for the planned experiment 50.00 cell/well was plated into 24 well plates (Costar® 24 Well TC-Treated Microplates) and left overnight to adhere to the bottom of the well. Addition of the substance was performed the following way: next day the culture media was drawn from the adhered cells and media comprising compounds of the present invention in appropriate concentration and well mixed therein was pipetted (2 ml/well) onto the cells. The substance to be examined was diluted in 100% DMSO, this way an amount of DMSO corresponding to the highest concentration of the substance in a given assay were measured in the media of the control wells. After 48 hours of treatment live cells were detected by CellTiter® 96 Aqueous Non-radioactive Cell Proliferation Assay (Promega, Madison, Wis., USA) to determine the number of live cells in the treated and in the control samples.\nMTS is converted to formazane in the living cells, which product is dissolved in the media, and its quantity/absorbance can be measured at 490 nm. […] Then, for the determination of the ratio of live cells 20 μl MTS and 1 μl PMS are added to 100 μl media. The enzyme reaction occurs at incubation at 37° C., 5% CO2 for 1 to 4 hours. Formazane produced by the cells is read on ELISA plate reader, from which the number of living cells can be obtained indirectly. Since the inventors performed the experiments in 24 well plates with 50.000 cell/well, the protocol had to be modified. After treatment of the cells for an appropriate time (type of compound, different concentrations), the incubation media (2 ml) containing the examined substance was removed, then 400 μl media containing reagents in the same concentration as given above (333.3 μl media, 66.6 μl MTS, and 3.3 μl PMS per well) was pipetted to the cells. To be able to use ELISA plate reader (Multiskan R C, Thermo Labsystems, Franklin, Mass., USA) 400 μl sample from each single well of the 24 well plate was pipetted into four wells of a 96 well plate (Micromethod plates 96 wells flat form) in 100 μl aliquots. That also helped to eliminate possible errors due to inconsistent pipetting. On each 24 well plate 4 wells were control samples. From these 3 times 100 μl was pipetted onto the 96 well plates, so, altogether 12 controls were provided on each 96 well plate. The remaining 4 wells were for background measurements with 100 μl media containing MTS and PMS as described above."}, "TNFα": {"system": "TNFα", "assay": "late phase (transcriptionally induced) TNFα secretion of macrophages, ELISA", "format": "cell-based, mice", "details": "preformed TNFα washed away after 4 hours, TNFα of next 4 hours; FIG. 3", "method": "For the detection of late phase TNFα secretion the preformed TNFα, released after LPS induction of the macrophages, was washed away after 4 hours, and the amount of TNFα produced during the next 4 hours was determined by ELISA test. […] Results are depicted in FIG. 3."}, "[4]": {"system": "RAW.264.7 matured mice macrophages", "assay": "MTS test of vitality / metabolic activity of the macrophages", "format": "cell-based", "method": "In our experiments we investigated the early TNFα secretion of RAW.264.7 matured mice macrophages. This cell line stores large amount of preformed TNFα. […] Culture supernatant was collected and TNFα content was determined by R&D Duoset ELISA kit (detection limit<62.5 pg/ml). […] So the reduced TNFα level was due to inhibition of the release of preformed TNFα and not due to dying of the cells.\nEffects of compound 3a and compound 3b on TNFα secretion and on NF-kappaB activation could have been based on cytotoxicity as well. To exclude that, we determined the metabolic activity of the cells, which is proportional to the cell number, by MTS test 8 hours after the treatment."}, "Rab GTPase proteins": {"system": "Rab GTPase proteins", "assay": "affinity chromatography of MCF-7 protein fraction with LC-MS/MS", "format": "binding, human", "details": "compound linked to Sepharose beads, 2 M NaCl eluate", "method": "By using affinity chromatography we investigated which are the proteins that bind compound 5b of the invention. Compound 5b was linked to cyanobromide activated Sepharose (Amersham-Pharmacia, Sepharose 4B) beads in 6:4 DMF:water mixture for 16 hours at room temperature. 1 ml of the beads was washed with 50 ml 6:4 DMF:water mixture, and then with 50 ml 70% ethanol, then with PBS (0.01 M phosphate buffer, 0.0027 M KCl, 0.137 M NaCl, pH: 7.4). After washing the column 5 ml protein fraction of human MCF-7 breast carcinoma cells (10 million cells homogenized with Complete, Protease Inhibitor Cocktail Tablets, Roche Diagnostics GmbH) were applied onto the column. The column was washed with 20 ml 0.2 M NaCl—PBS solution, then with 15 ml 0.5 M NaCl—PBS solution and with 15 ml 0.8 M NaCl—PBS solution, then it was eluted by 2 ml 2 M NaCl—PBS. The eluate was analyzed by mass spectrometry (LC-MS/MS) to determine the proteins binding to compound 5b.\nMass spectrometry analysis was performed according to the protocol published at http://donatello.ucsf.edu/ingel.html at the time of drafting the patent application.\nFor the LC-MS/MS analysis 5 μl sample was injected. For the LC precolumn trap was applied: 5 min 20 μl 0.1% trifluoroacetic acid/water, then gradient elution for MS/MS analysis. Columns: Zorbax 300SB-C18, 5 μm, 5×0.3 mm; Zorbax 300SB-C18, 3.5 μm, 150×0.075 mm. […]"}, "[5]": {"system": "human leukemia cells (K562)", "assay": "leukemia survival model, K562 cells i.v.", "format": "in vivo, CB17/scid mice", "details": "100 mg/kg p.o., once a day five days per week for 3 weeks from day 4; FIG. 10", "method": "2×10^6 human leukemia cells (K562) from in vitro cultures were injected intravenously (i.v.) into partially narcotized (diethylether narcosis) adult male CB17/scid mice, born with immunodeficiency. After tumor cell inoculation animals were randomly assigned into two groups and their ears were marked. From the 4th day after the tumor cell inoculation mice were treated once a day five days per week for 3 weeks with compound 9a (100 mg/kg), per os (p.o.) by gavage. Control animals were treated with appropriate dilution of the carrier (DMSO) similarly to the treated group with similar frequency. Body weight changes were monitored once a week for each animal according to the ear marks. Evaluation of the effect of the compound was based on the survival of the animals. Results are shown on FIG. 10."}, "[6]": {"details": "in the concentration range tested"}, "[7]": {"details": "already at 20 and 50 μM concentrations"}},
  "data": [
    {"smiles": "CCNc1c(F)c(F)c(F)c2c1C(=O)N(c1c(C(C)C)cccc1C(C)C)C2=O", "note": "[Compound 3a, 2-(2,6-diisopropylphenyl)-4-(ethylamino)-5,6,7-trifluoroisoindole-1,3-dione]", "values": [
      {"measurement": "effect on MCF7 cells", "setting": "[1]; [6]", "result": "weak effect"},
      {"measurement": "number of divided (living) bacteria versus untreated group", "setting": "Mycobacterium avis", "result": "significantly smaller"},
      {"measurement": "effect on HepG2 cells", "setting": "[2]; [6]", "result": "weak effect"},
      {"measurement": "effect on RVH melanoma cells", "setting": "[3]", "result": "weak effect"},
      {"measurement": "late TNFα secretion of macrophages", "setting": "TNFα", "result": "inhibited late TNFα secretion of macrophages in a concentration dependent way"},
      {"measurement": "vitality of the cells (MTS test)", "setting": "[4]; 3 hours after the stimulation with LPS", "result": "no cell death was detected"},
      {"measurement": "metabolic activity of the cells (MTS test)", "setting": "[4]; 8 hours after the treatment", "result": "not found to be toxic"}
    ]},
    {"smiles": "CC(C)c1cccc(C(C)C)c1N1C(=O)c2c(F)c(F)c(F)c(NCCCN3CCOCC3)c2C1=O", "note": "[Compound 7a, 2-(2,6-diisopropylphenyl)-4-(3-morpholino-4-yl-propylamino)-5,6,7-trifluoroisoindole-1,3-dione]", "values": [
      {"measurement": "inhibition of MCF7 cells (cytotoxic effect)", "setting": "[1]", "result": "strongest inhibition"},
      {"measurement": "inhibition of HepG2 cells (cytotoxic effect)", "setting": "[2]", "result": "strongest inhibition"}
    ]},
    {"smiles": "CC(C)c1cccc(C(C)C)c1N1C(=O)c2c(F)c(F)c(F)c(NCc3cccnc3)c2C1=O", "note": "[Compound 4a]", "values": [
      {"measurement": "inhibition of MCF7 cells (cytotoxic effect)", "setting": "[1]", "result": "strongest inhibition"},
      {"measurement": "inhibition of HepG2 cells (cytotoxic effect)", "setting": "[2]", "result": "strongest inhibition"},
      {"measurement": "inhibition of RVH melanoma cells (cytotoxic effect)", "setting": "[3]", "result": "strongest inhibition"}
    ]},
    {"smiles": "CC(C)c1cccc(C(C)C)c1N1C(=O)c2c(F)c(F)c(F)c(NCCN)c2C1=O", "note": "[Compound 5a, 2-(2,6-diisopropylphenyl)-4-(2-amino-ethylamino)-5,6,7-trifluoroisoindole-1,3-dione]", "values": [
      {"measurement": "effect on MCF7 cells", "setting": "[1]; [7]", "result": "strong effect"},
      {"measurement": "effect on HepG2 cells", "setting": "[2]; [6]", "result": "weak effect"},
      {"measurement": "inhibition of RVH melanoma cells (cytotoxic effect)", "setting": "[3]", "result": "strongest inhibition"}
    ]},
    {"smiles": "CC(C)c1cccc(C(C)C)c1N1C(=O)c2c(F)c(F)c(F)c(NCC(F)(F)F)c2C1=O", "note": "[Compound 6a, 2-(2,6-diisopropylphenyl)-4,5,6-trifluoro-7-(2,2,2-trifluoroethylamino)isoindole-1,3-dione]", "values": [
      {"measurement": "inhibition of MCF7 cells (cytotoxic effect)", "setting": "[1]", "result": "strongest inhibition"},
      {"measurement": "inhibition of HepG2 cells (cytotoxic effect)", "setting": "[2]", "result": "strongest inhibition"},
      {"measurement": "inhibition of RVH melanoma cells (cytotoxic effect)", "setting": "[3]", "result": "strongest inhibition"}
    ]},
    {"smiles": "CC(C)c1cccc(C(C)C)c1N1C(=O)c2c(F)c(F)c(NCCN)c(F)c2C1=O", "note": "[Compound 5b, 2-(2,6-diisopropylphenyl)-5-(2-amino-ethylamino)-4,6,7-trifluoroisoindole-1,3-dione]", "values": [
      {"measurement": "effect on RVH melanoma cells", "setting": "[3]", "result": "weak effect"},
      {"measurement": "proteins binding to the compound", "setting": "Rab GTPase proteins", "result": "interactions with Rab GTPase proteins were identified"}
    ]},
    {"smiles": "CC(C)c1cccc(C(C)C)c1N1C(=O)c2c(F)c(F)c(NCCCN3CCOCC3)c(F)c2C1=O", "note": "[Compound 7b, 2-(2,6-diisopropylphenyl)-5-(3-morpholino-4-yl-propylamino)-4,6,7-trifluoroisoindole-1,3-dione]", "values": [
      {"measurement": "effect on MCF7 cells", "setting": "[1]; [7]", "result": "strong effect"},
      {"measurement": "inhibition of HepG2 cells (cytotoxic effect)", "setting": "[2]", "result": "strongest inhibition"},
      {"measurement": "effect on HepG2 cells", "setting": "[2]; [7]", "result": "strong effect"},
      {"measurement": "inhibition of RVH melanoma cells (cytotoxic effect)", "setting": "[3]", "result": "strongest inhibition"}
    ]},
    {"smiles": "CC(C)c1cccc(C(C)C)c1N1C(=O)c2c(F)c(F)c(NCc3cccnc3)c(F)c2C1=O", "note": "[Compound 4b]", "values": [
      {"measurement": "effect on MCF7 cells", "setting": "[1]; [7]", "result": "strong effect"},
      {"measurement": "effect on HepG2 cells", "setting": "[2]; [7]", "result": "strong effect"},
      {"measurement": "inhibition of RVH melanoma cells (cytotoxic effect)", "setting": "[3]", "result": "strongest inhibition"}
    ]},
    {"smiles": "CC(C)c1cccc(C(C)C)c1N1C(=O)c2c(F)c(F)c(F)c(NC3CCCC3)c2C1=O", "note": "[Compound 9a, 2-(2,6-diisopropylphenyl)-4-(cyclopentylamino)-5,6,7-trifluoroisoindoline-1,3-dione]", "values": [
      {"measurement": "survival of the animals", "setting": "[5]", "result": "significant increase of the survival"}
    ]}
  ]
}
